Legend:
Aorta [1] = experiment: Vasorelaxant activity in Sprague-Dawley rat endothelium thoracic aortic ring assessed as inhibition of phenylephrine-induced submaximal contraction measured after 5 mins
Aorta [2] = experiment: Vasorelaxant activity in Sprague-Dawley rat endothelium thoracic aortic ring assessed as inhibition of phenylephrine-induced submaximal contraction at 180 uM measured after 5 mins; format: functional

| IC50 (Aorta [1]) | Compound | inhibition at 180 µM (Aorta [2]) |
| --- | --- | --- |
| 136 µM | OC/C=C/c1cccc(Nc2cnc3ccccc3n2)c1 | 78.6% |
| 161 µM | O=C(O)/C=C/c1cccc(Nc2ccc3ccccc3n2)c1 | 55.9% |
